Laboratory results taken from ChEMBL document CHEMBL5465560, “Selectivity Literature for EUbOPEN Chemogenomic Library” (2024).

Experiments:
[1] = target: MAP kinase-interacting serine/threonine-protein kinase 1 (Homo sapiens) (UniProt Q9BUB5); details: at 10 µM
[2] = target: T1, RAC-gamma serine/threonine-protein kinase (Homo sapiens, UniProt Q9Y243); test: Selectivity interaction (Kinase panel (DSF assay)) EUB0001558a AKT3
[3] = target: T2, Serine/threonine-protein kinase Sgk3 (Homo sapiens) (UniProt Q96BR1); test: Selectivity interaction (KinomeScan (DiscoverX)) EUB0000092b SGK3; details: at 10 µM
T2 sequence (whole entry): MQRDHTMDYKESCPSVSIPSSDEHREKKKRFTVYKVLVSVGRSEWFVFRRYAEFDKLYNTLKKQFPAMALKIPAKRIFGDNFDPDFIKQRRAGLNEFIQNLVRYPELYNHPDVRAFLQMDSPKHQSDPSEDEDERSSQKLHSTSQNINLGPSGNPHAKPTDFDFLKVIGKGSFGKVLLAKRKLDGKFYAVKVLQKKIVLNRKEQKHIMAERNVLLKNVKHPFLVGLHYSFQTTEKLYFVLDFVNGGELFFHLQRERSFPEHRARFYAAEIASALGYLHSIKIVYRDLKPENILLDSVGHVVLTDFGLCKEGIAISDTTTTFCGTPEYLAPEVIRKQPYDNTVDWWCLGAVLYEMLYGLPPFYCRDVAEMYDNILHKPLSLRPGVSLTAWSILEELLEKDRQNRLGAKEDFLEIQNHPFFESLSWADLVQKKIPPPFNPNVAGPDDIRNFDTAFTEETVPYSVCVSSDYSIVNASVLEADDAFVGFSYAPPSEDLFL

[4] = target: Serine/threonine-protein kinase 38-like (Homo sapiens) (UniProt Q9Y2H1); test: Selectivity interaction (KinomeScan (DiscoverX)) EUB0000092b STK38L; details: at 10 µM
Sequence of Serine/threonine-protein kinase 38-like (Homo sapiens) (Q9Y2H1 2-464 limits assumed): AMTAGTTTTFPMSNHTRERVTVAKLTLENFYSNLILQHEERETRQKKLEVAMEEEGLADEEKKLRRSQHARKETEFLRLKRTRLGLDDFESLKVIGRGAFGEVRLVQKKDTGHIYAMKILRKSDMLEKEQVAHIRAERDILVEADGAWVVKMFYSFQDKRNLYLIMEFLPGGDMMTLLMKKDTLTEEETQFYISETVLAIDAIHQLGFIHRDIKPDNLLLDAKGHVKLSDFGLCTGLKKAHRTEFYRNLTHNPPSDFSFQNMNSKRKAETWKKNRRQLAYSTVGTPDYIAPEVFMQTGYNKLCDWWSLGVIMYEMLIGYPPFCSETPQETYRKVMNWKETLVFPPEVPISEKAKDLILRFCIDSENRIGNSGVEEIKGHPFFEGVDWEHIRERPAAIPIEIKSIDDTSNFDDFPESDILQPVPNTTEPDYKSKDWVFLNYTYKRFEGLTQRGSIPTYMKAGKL

[5] = target: MAP kinase-interacting serine/threonine-protein kinase 2 (Homo sapiens, UniProt Q9HBH9); test: Selectivity interaction (Upstate Kinase Profiler service (Millipore)) EUB0000056c MKNK2; details: at 1 µM
[6] = target: T1, RAC-gamma serine/threonine-protein kinase; test: Selectivity interaction (Millipore kinase profiler) EUB0000124b AKT3; details: at 10 µM
[7] = target: Serine/threonine-protein kinase N1 (Homo sapiens, UniProt Q16512); test: Selectivity interaction (Kinase panel (Z-LYTE Assay)) EUB0001632a PKN1; details: at 10 µM
[8] = target: Tyrosine-protein kinase Fyn (Homo sapiens) (UniProt P06241); test: Selectivity interaction (ActivX KiNativ screen (kinase selectivity in THP-1 cell lysates)) EUB0000639a FYN; assay type: subcellular; details: lysate, at 0.2 µM
[9] = target: Casein kinase I isoform epsilon (Homo sapiens, UniProt P49674); test: Selectivity interaction (Kinase panel (Invitrogen)) EUB0000639a CSNK1E; details: at 200 nM
[10] = target: Serine/threonine-protein kinase WNK1 (Homo sapiens) (UniProt Q9H4A3); test: Selectivity interaction (ActivX KiNativ screen (kinase selectivity in THP-1 cell lysates)) EUB0000639a WNK1; assay type: subcellular; details: lysate, at 5 µM
[11] = target: Proto-oncogene tyrosine-protein kinase ROS (Homo sapiens) (UniProt P08922); test: Selectivity interaction (KinomeScan (DiscoverX)) EUB0000607a ROS1; details: at 10 µM
Sequence of Proto-oncogene tyrosine-protein kinase ROS (Homo sapiens) (P08922 whole entry): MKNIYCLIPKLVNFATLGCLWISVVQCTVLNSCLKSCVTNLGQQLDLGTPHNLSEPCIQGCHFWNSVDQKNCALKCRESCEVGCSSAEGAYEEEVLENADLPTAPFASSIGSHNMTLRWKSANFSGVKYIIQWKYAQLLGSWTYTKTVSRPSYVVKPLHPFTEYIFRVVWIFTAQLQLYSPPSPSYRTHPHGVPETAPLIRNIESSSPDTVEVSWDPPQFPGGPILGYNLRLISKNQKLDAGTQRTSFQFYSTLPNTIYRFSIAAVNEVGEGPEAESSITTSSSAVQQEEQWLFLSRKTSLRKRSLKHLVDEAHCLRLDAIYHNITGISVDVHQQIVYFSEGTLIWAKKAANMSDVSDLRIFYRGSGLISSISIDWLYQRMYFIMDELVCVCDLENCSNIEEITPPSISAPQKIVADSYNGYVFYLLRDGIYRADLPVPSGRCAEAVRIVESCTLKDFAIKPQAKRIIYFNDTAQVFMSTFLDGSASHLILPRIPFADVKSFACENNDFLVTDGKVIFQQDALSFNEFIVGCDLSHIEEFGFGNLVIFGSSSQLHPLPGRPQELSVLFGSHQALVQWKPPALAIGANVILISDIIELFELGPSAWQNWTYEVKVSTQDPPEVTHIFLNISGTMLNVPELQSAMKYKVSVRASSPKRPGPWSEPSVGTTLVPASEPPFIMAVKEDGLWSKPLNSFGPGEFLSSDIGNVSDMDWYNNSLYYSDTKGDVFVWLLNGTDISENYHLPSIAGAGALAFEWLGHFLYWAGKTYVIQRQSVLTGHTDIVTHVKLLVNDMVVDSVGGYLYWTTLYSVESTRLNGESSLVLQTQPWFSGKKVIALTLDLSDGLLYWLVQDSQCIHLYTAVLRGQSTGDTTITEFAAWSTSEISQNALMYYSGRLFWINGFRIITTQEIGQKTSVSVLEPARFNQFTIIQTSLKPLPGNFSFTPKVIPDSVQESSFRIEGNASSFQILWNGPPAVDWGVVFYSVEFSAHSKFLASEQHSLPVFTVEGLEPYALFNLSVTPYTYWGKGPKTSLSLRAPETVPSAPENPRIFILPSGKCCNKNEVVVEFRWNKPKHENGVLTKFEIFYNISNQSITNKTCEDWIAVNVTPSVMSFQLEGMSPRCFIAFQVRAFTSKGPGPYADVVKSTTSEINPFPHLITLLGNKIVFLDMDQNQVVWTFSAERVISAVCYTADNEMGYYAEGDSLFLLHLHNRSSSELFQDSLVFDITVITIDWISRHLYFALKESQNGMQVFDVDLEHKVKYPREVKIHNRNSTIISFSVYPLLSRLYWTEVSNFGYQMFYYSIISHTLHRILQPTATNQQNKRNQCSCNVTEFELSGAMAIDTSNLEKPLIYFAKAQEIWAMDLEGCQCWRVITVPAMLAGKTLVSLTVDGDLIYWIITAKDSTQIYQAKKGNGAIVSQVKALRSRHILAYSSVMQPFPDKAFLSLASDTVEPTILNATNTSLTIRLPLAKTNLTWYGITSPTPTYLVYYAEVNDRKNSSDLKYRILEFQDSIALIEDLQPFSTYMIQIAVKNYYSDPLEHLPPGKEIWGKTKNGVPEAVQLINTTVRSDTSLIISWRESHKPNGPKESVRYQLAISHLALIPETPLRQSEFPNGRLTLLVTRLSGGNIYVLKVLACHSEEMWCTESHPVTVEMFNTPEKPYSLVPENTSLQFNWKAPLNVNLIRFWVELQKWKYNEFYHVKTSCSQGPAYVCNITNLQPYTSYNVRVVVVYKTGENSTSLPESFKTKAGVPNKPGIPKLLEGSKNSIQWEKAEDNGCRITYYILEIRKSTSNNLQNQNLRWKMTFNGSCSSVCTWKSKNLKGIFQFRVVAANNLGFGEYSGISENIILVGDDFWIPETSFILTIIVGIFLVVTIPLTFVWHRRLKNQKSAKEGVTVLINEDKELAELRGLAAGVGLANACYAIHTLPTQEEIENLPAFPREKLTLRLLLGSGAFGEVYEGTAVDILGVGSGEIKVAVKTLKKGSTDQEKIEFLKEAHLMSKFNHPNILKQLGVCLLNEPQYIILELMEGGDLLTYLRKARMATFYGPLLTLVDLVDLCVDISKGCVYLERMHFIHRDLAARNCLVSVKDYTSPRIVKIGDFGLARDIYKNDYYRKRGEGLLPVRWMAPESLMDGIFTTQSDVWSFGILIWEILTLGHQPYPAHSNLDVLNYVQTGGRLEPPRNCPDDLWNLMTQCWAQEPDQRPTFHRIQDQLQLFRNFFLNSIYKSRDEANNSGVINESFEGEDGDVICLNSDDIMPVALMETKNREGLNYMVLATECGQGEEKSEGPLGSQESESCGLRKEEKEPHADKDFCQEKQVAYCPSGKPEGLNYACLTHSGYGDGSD

[12] = target: T3, Hormonally up-regulated neu tumor-associated kinase (Homo sapiens) (UniProt P57058); test: Selectivity interaction (KinomeScan (DiscoverX)) EUB0000607a HUNK; details: at 10 µM
T3 sequence (whole entry): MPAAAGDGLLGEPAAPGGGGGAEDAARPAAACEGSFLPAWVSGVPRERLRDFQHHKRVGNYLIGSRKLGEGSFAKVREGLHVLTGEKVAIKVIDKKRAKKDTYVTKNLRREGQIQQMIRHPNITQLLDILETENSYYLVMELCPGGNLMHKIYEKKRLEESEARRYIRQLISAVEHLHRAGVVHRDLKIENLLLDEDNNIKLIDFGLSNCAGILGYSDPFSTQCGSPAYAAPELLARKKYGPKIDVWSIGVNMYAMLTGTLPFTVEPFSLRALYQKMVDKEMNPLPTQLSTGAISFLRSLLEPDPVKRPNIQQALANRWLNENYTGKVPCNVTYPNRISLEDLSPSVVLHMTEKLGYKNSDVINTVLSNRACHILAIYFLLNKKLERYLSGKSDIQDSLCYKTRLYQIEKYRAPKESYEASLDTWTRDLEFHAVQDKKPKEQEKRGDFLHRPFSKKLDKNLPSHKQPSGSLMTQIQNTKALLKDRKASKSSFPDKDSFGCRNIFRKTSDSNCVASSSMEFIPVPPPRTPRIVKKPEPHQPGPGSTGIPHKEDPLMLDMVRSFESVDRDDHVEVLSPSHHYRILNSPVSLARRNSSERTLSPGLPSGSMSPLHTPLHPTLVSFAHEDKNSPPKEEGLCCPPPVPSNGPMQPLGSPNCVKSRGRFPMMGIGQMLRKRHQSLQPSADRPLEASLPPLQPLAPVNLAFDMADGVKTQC

[13] = target: T1, RAC-gamma serine/threonine-protein kinase; test: Selectivity interaction (KinomeScan (DiscoverX)) EUB0001049a AKT3; details: at 1 µM
[14] = target: Dual specificity protein kinase CLK4 (Homo sapiens, UniProt Q9HAZ1); test: Selectivity interaction (KinomeScan (DiscoverX)) EUB0000045b CLK4
Sequence of Dual specificity protein kinase CLK4 (Q9HAZ1 whole entry, looked up): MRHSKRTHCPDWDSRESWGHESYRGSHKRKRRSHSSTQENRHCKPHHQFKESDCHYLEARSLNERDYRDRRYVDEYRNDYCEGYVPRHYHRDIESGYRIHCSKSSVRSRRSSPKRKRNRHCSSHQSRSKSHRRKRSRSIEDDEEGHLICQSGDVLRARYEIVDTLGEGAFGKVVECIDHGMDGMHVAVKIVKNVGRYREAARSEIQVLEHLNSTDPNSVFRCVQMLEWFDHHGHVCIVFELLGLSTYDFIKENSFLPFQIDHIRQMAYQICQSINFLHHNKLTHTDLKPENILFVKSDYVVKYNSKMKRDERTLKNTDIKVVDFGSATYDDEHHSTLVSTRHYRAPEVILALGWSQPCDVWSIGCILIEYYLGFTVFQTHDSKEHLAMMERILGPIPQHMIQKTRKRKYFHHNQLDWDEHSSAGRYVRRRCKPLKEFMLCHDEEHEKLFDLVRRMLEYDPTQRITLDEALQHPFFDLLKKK

[15] = target: Ribosomal protein S6 kinase alpha-5 (Homo sapiens) (UniProt O75582); test: Selectivity interaction (KinomeScan (DiscoverX)) EUB0001619a RPS6KA5; details: at 1 µM
[16] = target: Serine/threonine-protein kinase/endoribonuclease IRE1 (Homo sapiens) (UniProt O75460); test: Selectivity interaction (KinomeScan (DiscoverX)) EUB0001619a ERN1; details: at 1 µM
Sequence of Serine/threonine-protein kinase/endoribonuclease IRE1 (Homo sapiens) (O75460 19-977 limits assumed): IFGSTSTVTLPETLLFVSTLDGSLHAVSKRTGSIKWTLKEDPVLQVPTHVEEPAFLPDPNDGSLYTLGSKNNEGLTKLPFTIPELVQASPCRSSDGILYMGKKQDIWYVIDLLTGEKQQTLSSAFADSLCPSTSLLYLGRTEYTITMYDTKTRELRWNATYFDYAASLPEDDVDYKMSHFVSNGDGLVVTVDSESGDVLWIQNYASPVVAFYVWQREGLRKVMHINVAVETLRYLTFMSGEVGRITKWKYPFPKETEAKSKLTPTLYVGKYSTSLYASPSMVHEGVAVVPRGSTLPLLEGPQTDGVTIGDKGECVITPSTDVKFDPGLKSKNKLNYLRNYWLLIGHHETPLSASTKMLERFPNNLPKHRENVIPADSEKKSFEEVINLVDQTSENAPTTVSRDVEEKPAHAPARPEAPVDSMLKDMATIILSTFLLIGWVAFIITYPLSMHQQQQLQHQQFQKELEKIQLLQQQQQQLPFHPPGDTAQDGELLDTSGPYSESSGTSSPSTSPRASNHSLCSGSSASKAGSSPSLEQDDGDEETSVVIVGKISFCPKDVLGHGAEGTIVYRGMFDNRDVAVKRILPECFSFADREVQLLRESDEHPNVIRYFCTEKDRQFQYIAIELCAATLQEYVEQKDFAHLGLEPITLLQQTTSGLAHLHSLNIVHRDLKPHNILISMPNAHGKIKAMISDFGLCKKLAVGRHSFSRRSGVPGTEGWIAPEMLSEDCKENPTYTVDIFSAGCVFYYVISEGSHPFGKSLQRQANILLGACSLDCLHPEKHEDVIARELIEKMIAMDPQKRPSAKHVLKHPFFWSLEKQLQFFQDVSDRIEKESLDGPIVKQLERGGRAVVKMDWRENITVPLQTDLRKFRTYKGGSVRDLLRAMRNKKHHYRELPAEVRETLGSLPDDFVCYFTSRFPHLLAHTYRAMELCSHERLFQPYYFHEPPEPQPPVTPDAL

T1 sequence (Q9Y243 whole entry): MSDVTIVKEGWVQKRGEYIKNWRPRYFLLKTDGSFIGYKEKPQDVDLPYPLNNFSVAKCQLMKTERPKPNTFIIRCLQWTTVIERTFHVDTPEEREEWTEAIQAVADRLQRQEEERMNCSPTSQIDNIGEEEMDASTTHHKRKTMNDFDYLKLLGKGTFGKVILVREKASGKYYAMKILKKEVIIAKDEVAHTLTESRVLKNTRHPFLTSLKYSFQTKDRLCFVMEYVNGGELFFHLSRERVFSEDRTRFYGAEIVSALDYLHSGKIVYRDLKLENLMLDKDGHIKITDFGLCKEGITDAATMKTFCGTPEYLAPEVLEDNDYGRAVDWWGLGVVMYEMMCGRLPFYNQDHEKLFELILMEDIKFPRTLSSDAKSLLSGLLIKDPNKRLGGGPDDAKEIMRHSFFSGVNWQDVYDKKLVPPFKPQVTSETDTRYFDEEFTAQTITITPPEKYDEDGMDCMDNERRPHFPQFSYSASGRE

In the case of `CCN(CC)CCCCNc1ncc2cc(-c3cc(OC)cc(OC)c3)c(NC(=O)NC(C)(C)C)nc2n1`, the % of control [1] is reported as 100%.

With `CC(C)(O)[C@H](F)CN1Cc2cc(NC(=O)c3cnn4cccnc34)c(N3CCOCC3)cc2C1=O` the dTM [2] was 0.1 K.

For `CCC(=O)N1CCN(c2ccc(-n3c(=O)ccc4cnc5ccc(-c6cnc7ccccc7c6)cc5c43)cc2C(F)(F)F)CC1`, the % of control [3] was 100% and the % of control [4] was 94%.

`Cc1ccc(-c2ccc3c(ccc4sc5c(c43)NC[C@@H](C)NC5=O)n2)cn1` gave a % of inhibition [5] of 85%.

With `CC(=O)Nc1cccc(-n2c(=O)n(C3CC3)c(=O)c3c(Nc4ccc(I)cc4F)n(C)c(=O)c(C)c32)c1` the % of control [6] was 109%.

Work on `Cn1cc(-n2cnc3c(NCc4nc5cc(Cl)c(Cl)cc5[nH]4)nc(N4CCOCC4)nc32)cn1` yielded a % of control [7] of -4.72%.

`CC[C@@H]1[C@H](F)C(=O)N[C@@H]1COc1nccc2cc(C(N)=O)c(OC)cc12` [ZIMLOVISERTIB] was tested, and the % of inhibition [8] was 0.7%, the % of inhibition [9] was 42.3% and the % of inhibition [10] was -14.5%.

`CNC(=O)Nc1ccc(-c2nc(N3CC4CCC(C3)O4)c3cnn(C4CCC5(CC4)OCCO5)c3n2)cc1` showed a % of control [11] of 81% and a % of control [12] of 100%.

`COc1cc(Nc2nc(C)cc(-c3cnn4nc(OC)ccc34)n2)cc(C(F)(F)F)c1` was tested, and the % of control [13] was 96%.

`C=CC(=O)Nc1cc(-n2c(=O)ccc3cnc4ccc(-c5ccc(NS(C)(=O)=O)cc5)cc4c32)ccc1C` showed a % of control ([14]; at 1 µM) of 99% and a % of control ([14]; at 10 µM) of 85%.

`N#Cc1cccc(-c2c[nH]c3ncnc(N4CCOCC4)c23)c1` gave a % of control [15] of 74% and a % of control [16] of 74%.
